Tests used:
[1] = system: aggregation of the platelets caused by the collagene; assay: Anti-aggregating ex vivo activity against collagen in the rat; conditions: for Latency time (sec.) / Transmittance percentage (maximum aggregation): PRP 2 hours after last treatment, collagene 4 mcg/ml
Description: Six groups of 15 male rats of 200 - 250 g have been used.
The blood taken from the three rats of each group has been mixed and centrifuged during 6 minutes at 1400 rpm, at room temperature. After having taken the plasma full of platelets (PRP) the thereunder floating material has been centrifuged again (4000 rpm during 10 minutes) in order to have the plasma with few platelets (PPP) separated from the balance. The PRP has been diluted with a part of PPP in order to bring the number of platelets to 350 ± 50 x 10³/mm³. The aggregation has been evaluated in accordance with the method of Minsker D.H. and coll. (J. Pharmacol.Exp.Ther. 210 37 1979) by using an ELVI 840 two-channels aggregometer and an Omniscribe recorder B.500. A quantity of 0,25 ml PRP has been used, transferred into the aggregometer for two minutes at 37°C and stirred at 1000 rpm. The light intensity was arranged in such a way, to obtain 0% transmittance with the PRP and 100% with the PPP. After 2′ incubation, by means of microsyringe the collagene was added to the PRP in a volume quantity of 5 mcl with the final concentration of 4 mcg/ml.
From the aggregation trace of the recorder the following data have been evaluated: • a) latent time of the aggregation (seconds between the introductions of collagene and the starting of the aggregation) • b) transmittance increase percentage (maximum aggregation). The same proceeding was repeated for all animals, always by mixing the blood of three rats belonging to the same group and by obtaining in this manner five aggregation curves per group.

[2] = system: red cells in the rat; assay: Red cell deformability / filtration, Schmidt-Schönbein method; type: in vivo; conditions: dose 3 x 0,5 mM/kg/os, listed as Compound as Ex. 1
Text: (§1) steresis (Teiltel P.: Nouv. Rev. Franç. Hématol. 7, 195, 1967). Any alteration, almost undoubtely at the level of the red cell's membrane, cause some damaging variations of the red cell's elasticity thus making more difficult the passing through the capillary vessels having more reduced diameter, and therefore increasing the flow resistance in the peripheral vessels systems. In order to determine the effect caused by the compound according to the Example 1, on these features of the red cell, the method described by Schmidt, Schonbein and colleagues (Blut 26, 369, 1973) has been used.
In the circulatory flow, the above mentioned capillary vessels being excluded, the blood cells do normally circulate being attached between each other because of their adhesiveness. In order to study this adhesion force, the above mentioned Teitel method has been used. Male rats of 150 g body weight approximately have been employed, and they have been treated for three consecutive days with 0,5 mM/kg/os of the compound according to the Example 1, or otherwise Buflomedil, or even Pentosiphillin used as comparison substance. After the last treatment the animals, without eating from 18 hours, have been killed in a light ethereal anaesthesy and the blood was collected over an 0,2 molar EDTA (9 and 1 volumes respectively). The red cells filtering possibility, measured with the Teitel method, wherein the quantity of red cells passing, in high haematocritical conditions, through a paper filter with holes of 20-40 µm in a previously determined time, has been ascertained as follows: the blood was centrifuged for ten minutes at 2000 rpm in order to obtain the massing of the red cells, two ml of the blood collected as above were put into an upside down turned cone made with filtering paper, being previously wetted with a physiological solution. The volume passing through the filter in 2 - 4 - 8 and 16 minutes is then measured. […]

[3] = system: red cells in the rat; assay: Red cell adhesivity / filtration, Teitel method; type: in vivo; conditions: listed as Compound as Ex. 1
Text: as §1
In the circulatory flow, the above mentioned capillary vessels being excluded, the blood cells do normally circulate being attached between each other because of their adhesiveness. In order to study this adhesion force, the above mentioned Teitel method has been used. Male rats of 150 g body weight approximately have been employed, and they have been treated for three consecutive days with 0,5 mM/kg/os of the compound according to the Example 1, or otherwise Buflomedil, or even Pentosiphillin used as comparison substance. After the last treatment the animals, without eating from 18 hours, have been killed in a light ethereal anaesthesy and the blood was collected over an 0,2 molar EDTA (9 and 1 volumes respectively). The red cells filtering possibility, measured with the Teitel method, wherein the quantity of red cells passing, in high haematocritical conditions, through a paper filter with holes of 20-40 µm in a previously determined time, has been ascertained as follows: the blood was centrifuged for ten minutes at 2000 rpm in order to obtain the massing of the red cells, two ml of the blood collected as above were put into an upside down turned cone made with filtering paper, being previously wetted with a physiological solution. The volume passing through the filter in 2 - 4 - 8 and 16 minutes is then measured. The average filtration time T 1/2 is reckoned on semi-logarithmic paper by putting on the abscissae the logarithm of the time, and on the ordinates the percentage of blood filtered. In order to follow the Schmidt Schönbein method, the here after described proceeding has been performed: 0,2 ml of a suspension of red cells at 2% obtained by diluting the blood with the autological plasma, then it was placed into an appropriate device permitting to filter this blood through a filter (millipores) of 5 µm mashes at a filtration pressure of 50 mm water. With a chronometer one determines the time required for the passage of the whole sample through the filter.
At time same time, one measures, in the same conditions, the same parameter for a plasma sample. One calculates then the relative filtration time by dividing the time required to filter the diluted blood sample by the time being necessary to filter the plasma sample. For each group the average and the standard error of the individual data obtained was reckoned. The statistical evaluation was obtained by means of the Dunnett test.

[4] = system: Hypertriglyceridaemia caused by ethanole in the rats; assay: Hypertriglyceridaemia caused by ethanol in rats, activity at three dose levels; type: in vivo; conditions: rat; for Triglycerids M ± E.S.: 4 hours after last treatment; for Triglycerids % vs contr. positivi: 4 hours after treatment
Text: For this test group the methods described by Sistori C.R. and colleagues (Atherosclerosis 30, 45; 1978) is followed.
The hypertriglyceridaemia has been induced into the male rats having a body weight of 160 - 170 g by giving them to drink, for 4 consecutive days, a solution of 10% ethanole in water.

[5] = rat, 1,00 mM/kg os for 4 days, listed as Compound according to the Example N° 1

COc1cc(OC)c(C(=O)CCCN2CCCC2)c(OC)c1 [Example 1, 4-(1 pyrrholydinyl)-1-(2,4,6 trimethoxypheniyl)-1-nicotinized butanone]
Latency time, % variation vs controls ([1]; rat, 0,25 mM/kg os for 4 days): +15,7% | Transmittance percentage, % variation vs controls ([1]; rat, 0,25 mM/kg os for 4 days): -14,4% | Latency time (sec.) ([1]; rat, 0,25 mM/kg os for 4 days): 43,4 ± 4,2 sec. | Transmittance percentage (maximum aggregation) ([1]; rat, 0,25 mM/kg os for 4 days): 67,3 ± 4,4% | Latency time, % variation vs controls ([1]; rat, 0,50 mM/kg os for 4 days): +38,7% | Transmittance percentage, % variation vs controls ([1]; rat, 0,50 mM/kg os for 4 days): -34,3% | Latency time (sec.) ([1]; rat, 0,50 mM/kg os for 4 days): 52,0 ± 3,5 sec. | Transmittance percentage (maximum aggregation) ([1]; rat, 0,50 mM/kg os for 4 days): 51,6 ± 4,0% | Latency time (sec.) [1, 5]: 64,5 ± 5,4 sec. | Transmittance percentage (maximum aggregation) [1, 5]: 30,2 ± 3,6% | Latency time, % variation vs controls [1, 5]: +72,0% | Transmittance percentage, % variation vs controls [1, 5]: -61,6% | Schmidt-Schönbein method Δ % vs contr. [2]: 46,2% | Teitel method T1/2 min. M ± E.S. ([3]; dose 3 x 0,5 mM/kg/os (three consecutive days)): 2,26 ± 0,21 min. | Teitel method Δ % vs contr. ([3]; dose 3 x 0,5 mM/kg/os): 37,9% | Triglycerids M ± E.S. ([4]; dose 0,5 mM/kg/os once a day for 4 days): 148,2 ± 16,4 mg/100 ml | Triglycerids % vs contr. positivi ([4]; dose 0,5 mM/kg/os): -26,8% | Triglycerids M ± E.S. ([4]; dose 1,0 mM/kg/os once a day for 4 days): 135,0 ± 12,6 mg/100 ml | Triglycerids % vs contr. positivi ([4]; dose 1,0 mM/kg/os): -33,6% | Triglycerids M ± E.S. ([4]; dose 2,0 mM/kg/os once a day for 4 days): 112,6 ± 14,3 mg/100 ml | Triglycerids % vs contr. positivi ([4]; dose 2,0 mM/kg/os): -44,4% | decrease (of triglycerides vs positive controls) ([4]; dose of 0,4 mM/kg): 26,8% | decrease (of triglycerides vs positive controls) ([4]; dose of 1 mM/kg per os): 33,3% | decrease (of triglycerides vs positive controls) ([4]; dose of 2 mM/kg): 44,4%
